The assay has as its target T1, Recombinant human HSD17B13 enzyme (Homo sapiens, UniProt Q7Z5P4).
T1 sequence (Q7Z5P4 20-300): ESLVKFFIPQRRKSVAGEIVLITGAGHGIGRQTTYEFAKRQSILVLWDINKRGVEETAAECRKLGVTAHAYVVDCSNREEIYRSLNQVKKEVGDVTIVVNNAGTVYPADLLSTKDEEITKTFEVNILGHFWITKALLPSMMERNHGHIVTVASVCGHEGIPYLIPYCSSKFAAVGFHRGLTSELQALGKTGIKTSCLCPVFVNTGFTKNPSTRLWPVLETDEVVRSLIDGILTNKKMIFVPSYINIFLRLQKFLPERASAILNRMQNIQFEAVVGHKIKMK
Kind of assay: HSD17b13 NAD(P)H-Glo biochemical assay. The conditions noted are these: 50 uM estradiol, 1 mM NAD+, NAD(P)H-Glo luminescence; read-out: HSD17β13 IC50. The gist of the method:
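Recombinant human HSD17B13 in 20 mM Tris pH7.4 with 0.002% Tween-20 and 0.02% BSA was preincubated with inhibitor for 20 minutes at RT. The reaction ran 3 hours at 37° C with 50 uM estradiol and 1 mM NAD+ (final). NADH formed was detected by NAD(P)H-Glo luminescence after 1 hour at RT.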

What is called IC50 is the midpoint of a concentration-inhibition curve. Consider `CNC1CCN(c2ncc3c(-c4cc(C(F)(F)F)c(F)c(O)c4F)nn(C)c3n2)CC1` [Compound 18.29, 2,6-Difluoro-3-(1-methyl-6-(4-(methylamino)piperidin-1-yl)-1H-pyrazolo[3,4-d]pyrimidin-3-y1)-5-(trifluoromethyl)phenol], for which the IC50 lay in the range of 100 to 1000 nM. Consider `Cn1nc(-c2cc(C(F)(F)F)c(F)c(O)c2F)c2cnc(N3CCC(C(=O)O)CC3)nc21` [Compound 18.30, 1-(3-(2,4-Difluoro-3-hydroxy-5-(trifluoromethyl)phenyl)-1-methyl-1H-pyrazolo[3,4-d]pyrimidin-6-y1)piperidine-4-carboxylic Acid], for which the 50% inhibitory concentration (IC50) lay in the range of 100 to 1000 nM.

`CN(C)C1CCN(c2ncc3c(-c4cc(C(F)(F)F)c(F)c(O)c4F)nn(C)c3n2)CC1` [Compound 18.31, 3-(6-(4-(Dimethylamino)piperidin-1-y1)-1-methyl-1H-pyrazolo[3,4-d]pyrimidin-3-y1)-2,6-difluoro-5-(trifluoromethyl)phenol]: the half-maximal inhibitory concentration (IC50) lay within 100 to 1000 nM.

On to `Cn1nc(-c2cc(C(F)(F)F)c(F)c(O)c2F)c2cnc(N3CCOC(c4ccccc4)C3)nc21` (stereo not shown) [Compound 18.32, 2,6-Difluoro-3-(1-methyl-6-(2-phenylmorpholino)-1H-pyrazolo[3,4-d]pyrimidin-3-y1)-5-(trifluoromethyl)phenol], for which the IC50 is less than 100 nM. The value for `CN(C)CC1CN(c2ncc3c(-c4cc(C(F)(F)F)c(F)c(O)c4F)nn(C)c3n2)CCO1` (stereo not shown) [Compound 18.33, 3-(6-(2-((Dimethylamino)methyl)morpholino)-1-methyl-1H-pyrazolo[3,4-d]pyrimidin-3-y1)-2,6-difluoro-5-(trifluoromethyl)phenol] was 100 to 1000 nM; that for `CN(C)CC1CCN(c2ncc3c(-c4cc(C(F)(F)F)c(F)c(O)c4F)nn(C)c3n2)CC1` [Compound 18.34, 3-(6-(4-((Dimethylamino)methyl)piperidin-1-y1)-1-methyl-1H-pyrazolo[3,4-d]pyrimidin-3-y1)-2,6-difluoro-5-(trifluoromethyl)phenol] was 100 to 1000 nM.

In the case of `Cn1nc(-c2cc(C(F)(F)F)c(F)c(O)c2F)c2cnc(N3CCCCC3)nc21` [Compound 18.35, 2,6-Difluoro-3-(1-methyl-6-(piperidin-1-yl)-1H-pyrazolo[3,4-d]pyrimidin-3-y1)-5-(trifluoromethyl)phenol], the 50% inhibitory concentration (IC50) was less than 100 nM. Consider `Cn1nc(-c2cc(C(F)(F)F)c(F)c(O)c2F)c2cnc(N3CCC4(CCOCC4)CC3)nc21` [Compound 18.36, 2,6-Difluoro-3-(1-methyl-6-(3-oxa-9-azaspiro[5.5]undecan-9-yl)-1H-pyrazolo[3,4-d]pyrimidin-3-y1)-5-(trifluoromethyl)phenol], for which the IC50 is less than 100 nM. The same measure for `Cn1nc(-c2cc(C(F)(F)F)c(F)c(O)c2F)c2cnc(N3CCC4(CCOC4)CC3)nc21` [Compound 18.37, 2,6-Difluoro-3-(1-methyl-6-(2-oxa-8-azaspiro[4.5]decan-8-yl)-1H-pyrazolo[3,4-d]pyrimidin-3-y1)-5-(trifluoromethyl)phenol]: less than 100 nM. For `Cn1nc(-c2cc(C(F)(F)F)c(F)c(O)c2F)c2cnc(N3CCOCC3C(=O)O)nc21` (stereo not shown) [Compound 18.38, 4-(3-(2,4-Difluoro-3-hydroxy-5-(trifluoromethyl)phenyl)-1-methyl-1H-pyrazolo[3,4-d]pyrimidin-6-yl)morpholine-3-carboxylic Acid], the half-maximal inhibitory concentration (IC50) was in the range of 1000 to 30000 nM. Take `CN(C)CCC1CN(c2ncc3c(-c4cc(C(F)(F)F)c(F)c(O)c4F)nn(C)c3n2)CCO1` (stereo not shown) [Compound 18.39, 3-(6-(2-(2-(Dimethylamino)ethyl)morpholino)-1-methyl-1H-pyrazolo[3,4-d]pyrimidin-3-y1)-2,6-difluoro-5-(trifluoromethyl)phenol]: the IC50 was in the range of 100 to 1000 nM. For the molecule `Cn1nc(-c2cc(C(F)(F)F)c(F)c(O)c2F)c2cnc(N3CCOCC3CC(=O)O)nc21` (stereo not shown) [Compound 18.40, 2-(4-(3-(2,4-Difluoro-3-hydroxy-5-(trifluoromethyl)phenyl)-1-methyl-1H-pyrazolo[3,4-d]pyrimidin-6-yl)morpholin-3-yl)acetic Acid], the half-inhibitory concentration (IC50) was in the range of 100 to 1000 nM. For `CN1CCC2(CC1)CN(c1ncc3c(-c4cc(C(F)(F)F)c(F)c(O)c4F)nn(C)c3n1)CCO2` [Compound 18.41, 2,6-Difluoro-3-(1-methyl-6-(9-methyl-1-oxa-4,9-diazaspiro[5.5]undecan-4-y1)-1H-pyrazolo[3,4-d]pyrimidin-3-y1)-5-(trifluoromethyl)phenol], the concentration for half-maximal inhibition (IC50) lay in the range of 100 to 1000 nM. The same measure for `Cn1nc(-c2cc(C(F)(F)F)c(F)c(O)c2F)c2cnc(N3CCOCC3C3CCOCC3)nc21` (stereo not shown) [Compound 18.42, 2,6-Difluoro-3-(1-methyl-6-(3-(tetrahydro-2H-pyran-4-yl)morpholino)-1H-pyrazolo[3,4-d]pyrimidin-3-y1)-5-(trifluoromethyl)phenol]: less than 100 nM. With `Cn1nc(-c2cc(C(F)(F)F)c(F)c(O)c2F)c2cnc(N3CCOC(C(=O)O)C3)nc21` (stereo not shown) [Compound 18.43, 4-(3-(2,4-Difluoro-3-hydroxy-5-(trifluoromethyl)phenyl)-1-methyl-1H-pyrazolo[3,4-d]pyrimidin-6-yl)morpholine-2-carboxylic Acid], the 50% inhibitory concentration (IC50) fell in the range of 1000 to 30000 nM. With `Cn1nc(-c2cc(C(F)(F)F)c(F)c(O)c2F)c2cnc(N3CCC(c4ccccc4)CC3)nc21` [Compound 18.44, 2,6-Difluoro-3-(1-methyl-6-(4-phenylpiperidin-1-y1)-1H-pyrazolo[3,4-d]pyrimidin-3-y1)-5-(trifluoromethyl)phenol], the IC50 is less than 100 nM. In the case of `CN(C)C1CCCN(c2ncc3c(-c4cc(C(F)(F)F)c(F)c(O)c4F)nn(C)c3n2)C1` (stereo not shown) [Compound 18.45, 3-(6-(3-(Dimethylamino)piperidin-1-y1)-1-methyl-1H-pyrazolo[3,4-d]pyrimidin-3-y1)-2,6-difluoro-5-(trifluoromethyl)phenol], the IC50 lay within 100 to 1000 nM. The same measure for `Cn1nc(-c2cc(C(F)(F)F)c(F)c(O)c2F)c2cnc(N3CCOCC3c3ccccc3)nc21` (stereo not shown) [Compound 18.46, 2,6-Difluoro-3-(1-methyl-6-(3-phenylmorpholino)-1H-pyrazolo[3,4-d]pyrimidin-3-y1)-5-(trifluoromethyl)phenol]: less than 100 nM; for `CN1CCC2(CC1)CCN(c1ncc3c(-c4cc(C(F)(F)F)c(F)c(O)c4F)nn(C)c3n1)CC2` [Compound 18.47, 2,6-Difluoro-3-(1-methyl-6-(9-methyl-3,9-diazaspiro[5.5]undecan-3-y1)-1H-pyrazolo[3,4-d]pyrimidin-3-y1)-5-(trifluoromethyl)phenol]: less than 100 nM; for `Cn1nc(-c2cc(C(F)(F)F)c(F)c(O)c2F)c2cnc(N3CCOC(c4ccccn4)C3)nc21` (stereo not shown) [Compound 18.48, 2,6-Difluoro-3-(1-methyl-6-(2-(pyridin-2-yl)morpholino)-1H-pyrazolo[3,4-d]pyrimidin-3-y1)-5-(trifluoromethyl)phenol]: less than 100 nM. The same measure for `Cn1nc(-c2cc(C(F)(F)F)c(F)c(O)c2F)c2cnc(N3CCOC(C4CCOCC4)C3)nc21` (stereo not shown) [Compound 18.49, 2,6-Difluoro-3-(1-methyl-6-(2-(tetrahydro-2H-pyran-4-yl)morpholino)-1H-pyrazolo[3,4-d]pyrimidin-3-y1)-5-(trifluoromethyl)phenol]: less than 100 nM; for `Cn1nc(-c2cc(C(F)(F)F)c(F)c(O)c2F)c2cnc(N3CCOC(c4nnn[nH]4)C3)nc21` (stereo not shown) [Compound 18.50, 3-(6-(2-(1H-Tetrazol-5-yl)morpholino)-1-methyl-1H-pyrazolo[3,4-d]pyrimidin-3-y1)-2,6-difluoro-5-(trifluoromethyl)phenol]: 1000 to 30000 nM.

Turning to `Cn1nccc1C1CN(c2ncc3c(-c4cc(C(F)(F)F)c(F)c(O)c4F)nn(C)c3n2)CCO1` (stereo not shown) [Compound 18.51, 2,6-Difluoro-3-(1-methyl-6-(2-(1-methyl-1H-pyrazol-5-yl)morpholino)-1H-pyrazolo[3,4-d]pyrimidin-3-y1)-5-(trifluoromethyl)phenol], the IC50 was less than 100 nM. Consider `Cc1nnc(C2CN(c3ncc4c(-c5cc(C(F)(F)F)c(F)c(O)c5F)nn(C)c4n3)CCO2)o1` (stereo not shown) [Compound 18.52, 2,6-Difluoro-3-(1-methyl-6-(2-(5-methyl-1,3,4-oxadiazol-2-y1)morpholino)-1H-pyrazolo[3,4-d]pyrimidin-3-y1)-5-(trifluoromethyl)phenol], for which the IC50 fell in the range of 100 to 1000 nM. The same measure for `CN1CCN(c2ncc3c(-c4cc(C(F)(F)F)c(F)c(O)c4F)nn(C)c3n2)C(c2ccccc2)C1` (stereo not shown) [Compound 18.53, 2,6-Difluoro-3-(1-methyl-6-(4-methyl-2-phenylpiperazin-1-yl)-1H-pyrazolo[3,4-d]pyrimidin-3-yl)-5-(trifluoromethyl)phenol]: less than 100 nM; for `Cn1nc(-c2cc(C(F)(F)F)c(F)c(O)c2F)c2cnc(N3CCS(=O)(=O)C(C)(C)C3)nc21` [Compound 18.54, 4-(3-(2,4-Difluoro-3-hydroxy-5-(trifluoromethyl)phenyl)-1-methyl-1H-pyrazolo[3,4-d]pyrimidin-6-yl)-2,2-dimethylthiomorpholine 1,1-dioxide]: less than 100 nM. For the molecule `Cn1nc(-c2cc(C(F)(F)F)c(F)c(O)c2F)c2cnc(N3CCOC(c4cccnc4)C3)nc21` (stereo not shown) [Compound 18.55, 2,6-Difluoro-3-(1-methyl-6-(2-(pyridin-3-y1)morpholino)-1H-pyrazolo[3,4-d]pyrimidin-3-y1)-5-(trifluoromethyl)phenol], the half-maximal inhibitory concentration (IC50) was less than 100 nM. The value for `Cn1nc(-c2cc(C(F)(F)F)c(F)c(O)c2F)c2cnc(N3CCOC(c4ccncc4)C3)nc21` (stereo not shown) [Compound 18.56, 2,6-Difluoro-3-(1-methyl-6-(2-(pyridin-4-y1)morpholino)-1H-pyrazolo[3,4-d]pyrimidin-3-y1)-5-(trifluoromethyl)phenol] was less than 100 nM.

Source of the values: patent US20240083861A1, “HSD17B13 INHIBITORS AND USES THEREOF” (FL2022-001, Inc., priority 2020, published 2024).
